Values of other authors as cited in US8846083B2, “Method for the diffusion of molecules which are insoluble in an aqueous medium and composition using said method” (priority 2004, dated 2014).

Tests used:
[1] = administered via the digestive tract
[2] = administered via the digestive tract; remark: listed apart in the source

SMILES	time at which the maximum concentration of the active ingredient in the blood is reached [1] [min]	duration of pharmacological effects [2]
CC(C)Cc1ccc(C(C)C(=O)O)cc1 (stereo not shown) [ibuprofen]	90	approximately 2 hour
CC(C(=O)O)c1cccc(C(=O)c2ccccc2)c1 (stereo not shown) [ketoprofen]	75	1.5 hour
